Measurements: patent US7897580B2, “β glycolipids as immuno-modulators” (priority 2005, dated 2011)

Key:
human Hep3B HCC = test: Hep3B hepatocellular carcinoma transplanted into athymic Balb/c mice (Example 2); type: in vivo; settings: for hepatic/splenic NKT lymphocyte ratio / reduction of tumor volume (% change from maximal volume) / tumors developed (% of animals) / maximal tumor volume: daily i.p. 1.5 μg for 25 days; for hepatic/splenic NKT lymphocyte ratio: PBS control 0.38, p<0.05, FIG. 7; for reduction of tumor volume (% change from maximal volume): controls 10% increase, p<0.05, FIG. 6; for tumors developed (% of animals): controls 100%, FIG. 4; for maximal tumor volume: controls 101.14 mm^3, p<0.05, FIG. 5; for STAT4 expression in splenocytes / STAT6 expression in splenocytes: vs. controls, FIG. 9
From the text: Splenocytes were isolated and red blood cells removed as previously described [Vicari, A. P., et al., Immunology Today 17(2):71 (1996)]. Intrahepatic lymphocytes were isolated from all groups of mice at the end of the study, as previously described, with some modifications [Vicari et al., (1996) ibid.; Bleicher, P. A., et al., Science 250:679-682 (1990)]. […] The connective tissue and the gall bladder were removed, and livers were place in a 10-ml dish in cold sterile PBS. Livers and spleens were crushed through a stainless mesh (size 60, Sigma Chemical Co., St. Louis Mo.). Cell suspension was placed in a 50 ml tube for 3 minutes and washed twice in cold PBS (1,250×rpm for 10 minutes), and debris was removed. Cells were re-suspended in PBS, cell suspension was placed through a nylon mesh presoaked in PBS, and unbound cells were collected. Cells were washed twice in 45 ml PBS (1,250×rpm in room temperature). For liver and spleen lymphocyte isolation 20 ml of histopague 1077 (Sigma Diagnostics, St. Louis, Mo.) were slowly placed underneath the cells suspended in 7 ml of PBS, in a 50-ml tube. The tube was centrifuged at 1,640 rpm for 15 minutes at room temperature. Cells at the interface were collected, diluted in a 50-ml tube, and washed twice with ice-cold PBS (1,250 rpm for 10 minutes). Approximately 1×10^6 cells/mouse liver were recovered. The viability by trypan blue staining was more than 95%. Both splenocytes and liver-associated lymphocytes were isolated from all animals in all experimental groups.
Immediately following lymphocyte isolation, triplicates of 2-5×10^4 cells/500 μl PBS were put into Falcon 2052 tubes incubated with 4 ml of 1% BSA for 10 minutes, and centrifuged at 1400 rpm for 5 minutes. Analysis of lymphocyte subpopulations was performed using anti-NK1.1, anti-CD3, anti-CD4 and anti CD-8 antibodies. Cells were washed twice in 1% BSA, and kept in 4° C. until reading. For the control group, only 5 μl of 1% BSA was added. Analytical cell sorting was performed on 1×10^4 cells from each group with a fluorescence-activated cell sorter (FACSTAR plus, Becton Dickinson). Only live cells were counted, and background fluorescence from non-antibody-treated lymphocytes was deducted from the levels obtained. Gates were set on forward- and side-scatters to exclude dead cells and red blood cells. The data were analyzed with Consort 30 two-color contour plot program (Becton Dickinson, Oxnard, Calif.), or the CELLQuest program.
Blood was drawn from mice in all groups and centrifuged at 14,000 rpm. Serum INFγ, IL2, IL4, IL10 and IL-12 levels were measured by “sandwich” ELISA using Genzyme Diagnostics kits (Genzyme Diagnostics, Mass.).
To determine the clinical and immunological consequences of administration of different β-glycolipids such as β-glucosylceramide (GluC), β-lactosyl-ceramide (LacC), and β-galactosyl-ceramide (GalC) and of ceramide on hepatocellular carcinoma (HCC), mice transplanted with human Hep3B HCC cells, were studied. Five groups of athymic Balb/c mice, consisting of 8 mice each, were sublethally irradiated and transplanted with human Hep3B HCC, followed by daily intraperitoneal injections of GluC, LacC, GalC, ceramide (1.5 μg in 100 μl PBS) or PBS (100μ) for 25 days. Animals were followed for tumor size and weight and for intrahepatic and intrasplenic lymphocyte subpopulations, serum cytokine levels and expression of STAT1, STAT4 and STAT6 in splenocytes.

TNBS induced colitis = test: TNBS-induced colitis, mixture of β-GluC and β-LacC vs β-LacC alone (Example 3); type: in vivo, mice; settings: with TNBS; for Weight: share of mice, TNBS alone: Weight loss, listed as β-LC
Description: (§1) 2,4,6-trinitrobenzene sulfonic acid (TNBS)—colitis was induced by intracolonic instillation of TNBS, 1 mg/mouse, dissolved in […] of 50% ethanol as described. [Collins, C., etal., Eur. J. Immunol. 26:3114-3118 (1996)].
(§2) Diarrhea was followed daily throughout the study.
(§3) Colitis assessment was performed 14 days following colitis induction using standard parameters [Madsen, K. L., et al., Gastroenterology 113:151-159 (1997); Trop, S., et al., Hepatology 27:746-755 (1999)].
Four macroscopic parameters were determined, namely: degree of colonic ulcerations; intestinal and peritoneal adhesions; wall thickness; and degree of mucosal edema. Each parameter was graded on a scale from 0 (completely normal) to 4 (most severe) by two experienced blinded examiners.
For histological evaluation of inflammation, distal colonic tissue (last 10 cm) was removed and fixed in 10% formaldehyde. Five paraffin sections from each mouse were then stained with hematoxylin-eosin by using standard techniques. The degree of inflammation on microscopic cross sections of the colon was graded semiquantitatively from 0 to 4 [Madsen et al., (1997) ibid.; Trop et al., Hepatology 27:746-755 (1999)]. Grade 0: normal with no signs of inflammation; Grade 1: very low level of leukocyte infiltration; Grade 2: low level of leukocyte infiltration; and Grade 3: high level of infiltration with high vascular density, and bowel wall thickening; Grade 4: transmural infiltrates with loss of goblet cells, high vascular density, wall thickening, and disruption of normal bowel architecture. The grading was performed by two experienced blinded examiners.
To determine the possible immuno-modulation effect of a mixture of different β-glycolipids, the effect of a mixture of β-Glucocerebroside and β-Lactosyl-ceramide was tested using a murine model of colitis.
As summarized in Table 3, five groups of mice were studied, each consisting of 10 mice. Colitis was induced by intracolonic installation of trinitrobenzenesulfonic acid (TNBS) on day 1 and 5 in groups A, B and D. Group A mice were fed regular chow diet. […]

[1] = Mixture of β-GluC and β-LacC or β-LacC alone in mice not treated with TNBS, control groups (Example 3); type: in vivo; settings: without TNBS
Description: As summarized in Table 3, five groups of mice were studied, each consisting of 10 mice. Colitis was induced by intracolonic installation of trinitrobenzenesulfonic acid (TNBS) on day 1 and 5 in groups A, B and D. Group A mice were fed regular chow diet. Group B mice received oral (PO) 15 μg daily of a mixture of β-GluC and β-LacC, group D received only β-LacC. Groups C and E mice were not treated with TNBS, but received oral (PO) 15 μg daily of a mixture of β-GluC and β-LacC or only β-LacC, respectively, and served as control groups.
Mice were followed for macroscopic and microscopic colitis scores, as well as for survival and functional status and weight.

TNBS colitis = test: TNBS-induced experimental colitis, single β-glycolipids (Example 1); type: in vivo, C57Bl mice; settings: oral 15 μg daily, compared with controls
Description: as §1, §2, §3
Four macroscopic parameters were determined, namely: degree of colonic ulcerations; intestinal and peritoneal adhesions; wall thickness; and degree of mucosal edema. Each parameter was graded on a scale from 0 (completely normal) to 4 (most severe) by two experienced blinded examiners. […]
Immediately following lymphocyte isolation, triplicates of 2-5×10^4 cells/500 μl PBS were put into Falcon 2052 tubes incubated with 4 ml of 1% BSA for 10 minutes, and centrifuged at 1400 rpm for 5 minutes. […] Cells were washed twice in 1% BSA, and kept in 4° C. until reading. […] Analytical cell sorting was performed on 1×10^4 cells from each group with a fluorescence-activated cell sorter (FACSTAR plus, Becton Dickinson). Only live cells were counted, and background fluorescence from non-antibody-treated lymphocytes was deducted from the levels obtained. […]

Substance | hepatic/splenic NKT lymphocyte ratio (human Hep3B HCC) | reduction of tumor volume (% change from maximal volume) (human Hep3B HCC) [%] | tumors developed (% of animals) (human Hep3B HCC) [%] | maximal tumor volume (human Hep3B HCC) [mm^3] | STAT4 expression in splenocytes (human Hep3B HCC) | STAT6 expression in splenocytes (human Hep3B HCC) | Weight (TNBS induced colitis; share of mice with no weight change) | Weight (TNBS induced colitis; share of mice with weight increase) | Activity (TNBS induced colitis; TNBS alone: Lethargic) | Activity [1] | Weight ([1]; share of mice) | alleviation of colitis (microscopic colitis scores) (TNBS colitis; FIG. 1) | alleviation of colitis (microscopic colitis scores) (TNBS colitis; FIG. 1, listed as Lactosyl-ceramide)
ceramide | 0.85 | 81 | 50 | 64.4 | increased | increased | – | – | – | – | – | – | –
β-galactosyl-ceramide [GalC] | – | 49 | 71 | 86.1 | increased | increased | – | – | – | – | – | – | –
β-glucosylceramide | 6.13 | 43 | 87 | 71.4 | – | – | – | – | – | – | – | – | –
β-lactosyl-ceramide [LacC] | 1.94 | 78 | 43 | 77.9 | increased | increased | In 90% no change | In 10% increase | Normal | Normal | In 100% increase | most marked | most potent
